Nine molecules from US20020161202A1, “Apo-2DcR” (Genentech, Inc., priority 1997, published 2002) can be followed below.

Test [1] deals with HeLa cells. The test is described as follows: Apoptosis induction by Apo-2 in transfected HeLa cells, FACS analysis of phosphatydilserine exposure. It counts as cell-based, human. The conditions noted are these: inhibitor added at 200 μM at the time of transfection, FIG. 11C. The text has this:
(§1) Because death domains can function as oligomerization interfaces, over-expression of receptors that contain death domains may lead to activation of signaling in the absence of ligand [Frazer et al., supra, Nagata et al., supra]. To determine whether Apo-2 was capable of inducing cell death, human 293 cells or HeLa cells (ATCC CCL 2.2) were transiently transfected by calcium phosphate precipitation (293 cells) or electroporation (HeLa cells) with a pRK5 vector or pRK5-based plasmids encoding Apo-2 and/or CrmA. When applicable, the total amount of plasmid DNA was adjusted by adding vector DNA. Apoptosis was assessed 24 hours after transfection by morphology (FIG. 11A); DNA fragmentation (FIG. 11B); or by FACS analysis of phosphatydilserine exposure (FIG. 11C) as described in Marsters et al., Curr. Biol., 6:1669 (1996).
For samples assayed by FACS, the HeLa cells were co-transfected with pRK5-CD4 as a marker for transfection and apoptosis was determined in CD4-expressing cells; FADD was co-transfected with the Apo-2 plasmid; the data are means±SEM of at least three experiments, as described in Marsters et al., Curr. Biol., 6:1669 (1996). The caspase inhibitors, DEVD-fmk (Enzyme Systems) or z-VAD-fmk (Research Biochemicals Intl.) were added at 200 μM at the time of transfection.

Test [2] has as its system HeLa cells. Kind of test: Effect of preincubation with inhibitors on Apo-2L-induced apoptosis in HeLa cells (FACS). The format is cell-based, human. The conditions noted are these: Apo-2L 1 μg/ml, 5 hour incubation, FIG. 12C. The protocol:
The effects of a NF-κB inhibitor, ALLN (N-acetyl-Leu-Leu-norleucinal) and a […] inhibitor, cyclohexamide, were also tested. The HeLa cells (plated in 6-well dishes) were preincubated with PBS buffer, ALLN (Calbiochem) (40 μg/ml) or cyclohexamide (Sigma) (50 μg/ml) for 1 hour before addition of Apo-2L (1 μg/ml). After a 5 hour incubation, apoptosis was analyzed by FACS (see FIG. 12C).

Test [3] deals with NF-κB. The test is described as follows: NF-κB activation in HeLa cells transfected with receptor plasmids (electrophoretic mobility shift assay). It counts as cell-based, human. The conditions noted are these: harvested 24 hours after transfection, FIG. 12A. The protocol:
HeLa cells were transfected with pRK5 expression plasmids encoding full-length native sequence Apo-2, DR4 or Apo-3 and harvested 24 hours after transfection. […] Immunol., 153:5274-5284 (1994)], alone or together with a 50-fold excess of unlabelled probe, or with an irrelevant ^32P-labelled synthetic oligonucleotide […] NO: 13). In some samples, antibody to p65/RelA subunits of NF-κB (1 μg/ml; Santa Cruz Biotechnology) was added. DNA binding was analyzed by an electrophoretic mobility shift assay as described by Hsu et al., supra; Marsters et al., supra, and MacKay et al., supra.

A further test relates to Human 293 cells. The test is described as follows: Induction of apoptosis by Apo-2 transfection, morphology and DNA fragmentation. The conditions noted are these: 24 hours after transfection; morphology, DNA fragmentation; FIGS. 11A and 11B. The format is cell-based.
Description: as §1

The subject of test [4] is HeLa cells. Kind of test: Apo-2L-induced apoptosis in HeLa cells by FACS and its inhibition by soluble Apo-2 ECD. The format is cell-based, human. As to the method: Soluble Apo-2L ([…], prepared as described in Pitti et al., supra) was pre-incubated for 1 hour at room temperature with PBS buffer or affinity-purified Apo-2 ECD (5 μg/ml) together with anti-Flag antibody (Sigma) (1 μg/ml) and added to HeLa cells. After a 5 hour incubation, the cells were analyzed for apoptosis by FACS (as above) (FIG. 11D).
(In general: A flow cytometer gives signals particle by particle.)

Test [5] concerns NF-κB. The test is described as follows: NF-κB activity in HeLa cells treated with soluble ligand. The conditions noted are these: 1 μg/ml, FIG. 12B. It counts as cell-based, human.
In another test the test system is Apo-2L. The test is described as follows: Co-precipitation assay of Apo-2 ECD-Flag with poly-histidine-tagged Apo-2L. It counts as binding. The conditions noted are these: Apo-2 ECD-Flag supernatant with 5 μg poly-histidine-tagged soluble Apo-2L; FIG. 10. As to the method:
To determine whether Apo-2 and Apo-2L interact or associate with each other, supernatants from mock-transfected 293 cells or from 293 cells transfected with Apo-2 ECD-Flag (described in Example 6 above) (5 ml) were incubated with 5 μg poly-histidine-tagged soluble Apo-2L [Pitti et al., supra] for 30 minutes at room temperature and then analyzed for complex formation by a co-precipitation assay.
The samples were subjected to immunoprecipitation using 25 μl anti-Flag conjugated agarose beads (Sigma) or Nickel-conjugated agarose beads (Qiagen). After a 1.5 hour incubation at 4° C., the beads were spun down and washed four times in phosphate buffered saline (PBS). By using anti-Flag agarose, the Apo-2L was precipitated through the Flag-tagged Apo-2 ECD; by using Nickel-agarose, the Apo-2 ECD was precipitated through the His-tagged Apo-2L. The precipitated proteins were released by boiling the beads for 5 minutes in SDS-PAGE buffer, resolved by electrophoresis on 12% polyacrylamide gels, and then detected by immunoblot with anti-Apo-2L or anti-Flag antibody (2 μg/ml) as described in Marsters et al., J. Biol. Chem., (1997).

The target of a further test is T1, Fas/Apo-1 ligand (Homo sapiens, UniProt P48023).
T1 construct: purchased Alexis Biochemicals
T1 sequence (P48023 103-281 limits assumed): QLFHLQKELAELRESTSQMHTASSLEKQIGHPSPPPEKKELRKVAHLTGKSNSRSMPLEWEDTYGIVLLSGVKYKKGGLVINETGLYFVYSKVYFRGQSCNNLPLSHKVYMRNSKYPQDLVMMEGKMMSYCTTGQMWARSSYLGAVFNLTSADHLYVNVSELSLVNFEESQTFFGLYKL
Kind of test: BIACORE analysis of Apo-2 ECD. It counts as binding. As to the method:
(§2) The binding interaction was further analyzed by purifying Apo-2 ECD from the transfected 293 cell supernatants with anti-Flag beads (see Example 6) and then analyzing the samples on a BIACORE™ instrument. The BIACORE™ analysis indicated a dissociation constant (Kd) of about 1 nM.

For another test, the target named is T2, lymphotoxin-alpha (Homo sapiens, UniProt P01374).
T2 sequence (P01374 35-205): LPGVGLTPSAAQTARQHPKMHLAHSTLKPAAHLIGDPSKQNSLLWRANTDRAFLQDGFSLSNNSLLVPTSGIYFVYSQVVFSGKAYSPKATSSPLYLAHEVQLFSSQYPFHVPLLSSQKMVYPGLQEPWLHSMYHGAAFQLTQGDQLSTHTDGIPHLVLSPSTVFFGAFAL
Kind of test: BIACORE analysis of Apo-2 ECD. The format is binding. As to the method:
as §2
In general terms: Surface plasmon resonance follows binding to a sensor surface in real time, without labels.

For the next test, the target named is TNF-alpha (Homo sapiens, UniProt P01375). Kind of test: BIACORE analysis of Apo-2 ECD. It counts as binding. As to the method: as §2
Chain of TNF-alpha (P01375 77-233 limits assumed): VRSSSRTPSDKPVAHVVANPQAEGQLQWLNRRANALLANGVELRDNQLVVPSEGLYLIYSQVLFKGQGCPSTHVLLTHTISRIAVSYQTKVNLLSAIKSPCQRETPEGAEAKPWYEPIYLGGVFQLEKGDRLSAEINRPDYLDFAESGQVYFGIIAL

Where a SMILES comes first, the peptide text is derived from it. [ ]: non-standard residue; d: D form. The star is where a group is joined. Nle = CCCC[C@H](N)C(=O)O; Cbz = O=C(OCc1ccccc1)*; CH2F = FC*

Chain of Apo-2L (P50591 39-281 limits assumed): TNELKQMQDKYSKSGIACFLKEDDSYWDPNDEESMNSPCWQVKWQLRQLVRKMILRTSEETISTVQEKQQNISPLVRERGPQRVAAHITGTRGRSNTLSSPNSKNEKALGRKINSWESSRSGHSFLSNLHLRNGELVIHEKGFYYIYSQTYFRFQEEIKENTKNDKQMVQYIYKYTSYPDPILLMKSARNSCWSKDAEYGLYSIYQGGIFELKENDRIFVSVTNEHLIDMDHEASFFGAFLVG
Chain of Apo-2L (O14763 56-184 partner limits assumed): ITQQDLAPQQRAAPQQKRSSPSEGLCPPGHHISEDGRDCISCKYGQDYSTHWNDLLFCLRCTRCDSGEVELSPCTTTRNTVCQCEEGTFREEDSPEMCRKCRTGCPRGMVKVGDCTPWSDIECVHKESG

For the molecule `COC(=O)CC[C@H](NC(=O)[C@H](CC(=O)OC)NC(=O)OCc1ccccc1)C(=O)N[C@H](C(=O)N[C@@H](CC(=O)OC)C(=O)CF)C(C)C` [DEVD-fmk], the “apoptosis induction by Apo-2” value in the test with HeLa cells [1] is “blocked”. As for `C[C@@H]1C[C@@H]([C@H](O)CC2CC(=O)NC(=O)C2)C(=O)[C@@H](C)C1` [cyclohexamide], in the test with HeLa cells [2] (HeLa cells preincubated 1 hour with cyclohexamide 50 μg/ml), the “level of Apo-2L-induced apoptosis” value was “increased”.

In the case of `CCCC[C@@H](C=O)NC(=O)[C@H](CC(C)C)NC(=O)[C@H](CC(C)C)NC(C)=O` [ALLN, N-acetyl-Leu-Leu-norleucinal] (Ac-Leu-Leu-[Nle]-aldehyde), the “level of Apo-2L-induced apoptosis” value with HeLa cells [2] (HeLa cells preincubated 1 hour with ALLN 40 μg/ml) is “increased”. As for “DR4: TNF receptor family member with cytoplasmic death domain, receptor for Apo-2 ligand; expressed by transfection [reference compound]”, the “NF-κB activation upon transfection” value in the test with NF-κB [3] is reported as “significant NF-κB activation”. For the molecule “Apo-2: full-length native sequence human Apo-2, 411 amino acid type I transmembrane protein with death domain; expressed by transfection”, the “apoptosis of transfected 293 cells” value in the test with Human 293 cells is “marked apoptosis”. The “NF-κB activation upon transfection” value in the test with NF-κB [3] was “significant NF-κB activation”. On to “Apo-2L: Apo-2 ligand (also referred to as TRAIL), TNF family cytokine; soluble form as in Pitti et al.”, for which, in the test on HeLa cells [4] (soluble Apo-2L 0.5 μ/ml, 5 hour incubation, FACS, FIG. 11D), the “apoptosis in HeLa cells” value is on record as “marked apoptosis”. In the test with NF-κB [5], the “NF-κB activation in treated HeLa cells” value was “significant NF-κB activation”.

Regarding `COC(=O)C[C@H](NC(=O)[C@H](C)NC(=O)[C@@H](NC(=O)OCc1ccccc1)C(C)C)C(=O)CF` [z-VAD-fmk] (Cbz-Val-Ala-Asp(OMe)-CH2F), the “apoptosis induction by Apo-2” value with HeLa cells [1] is recorded as “blocked”.

Turning to “Apo-2 ECD: soluble Apo-2 extracellular domain (amino acid residues 1-184) fused to a C-terminal Flag epitope tag”, the “complex formation with Apo-2L” value in the test on Apo-2L is “can associate with each other”. In the test with Fas/Apo-1 ligand, the “binding to Fas/Apo-1 ligand” value is listed as “not capable of binding”. The binding to lymphotoxin-alpha result in the test with lymphotoxin-alpha was “not capable of binding”. In addition, in the test with TNF-alpha, the “binding to TNF-alpha” value was “not capable of binding”. Besides, the “blocking of Apo-2L action (apoptosis)” value in the test on HeLa cells [4] (Apo-2 ECD 5 μg/ml with anti-Flag antibody 1 μg/ml, pre-incubated 1 hour with Apo-2L 0.5 μ/ml, HeLa cells, FIG. 11D) is “capable of blocking Apo-2L action”. Regarding “Apo-2 ECD immunoadhesin: Apo-2 ECD (amino acids 1-184) fused to the hinge and Fc region of human immunoglobulin G1 heavy chain”, the IC50 in the test with HeLa cells [4] (dose-response analysis of inhibition of Apo-2L-induced apoptosis, HeLa cells, FIG. 11E, read-out: half-maximal inhibition) is approximately 0.3 nM.
